Read-outs that look alike come from different tables or passages of the source.
Assays:
[1] = system: Plasmodium falciparum Dd2 asexual blood stage parasites; test: microbe, parasite or virus in culture; design: species or system Plasmodium falciparum Dd2 in human erythrocytes; single determination (one 11-point concentration-response curve); conditions: Plasmodium falciparum, DD2, Erythrocyte, 72 h
HepG2 = conditions: human, hepg2 cells, 48 h
in vitro = conditions: human, hepg2 cells

Row | Log AC50 (M) (HepG2) | Compound | AC50 ([1]; read-out: AC50) | CC50 at 48 h (in vitro) | AC50 [1]
1 | -4.5143 M | CCN1CCN(c2cc(C)c3cc(NC(=O)/C=C/c4ccc(OCCC(C)C)cc4)ccc3n2)CC1 [NCGC00103856-01] | 2.11 µM | 30.6 µM | –
2 | -4.4643 M | COc1ccc(/C=C/C(=O)Nc2ccc3nc4c(c(Nc5ccccc5OC)c3c2)CCCC4)cc1 [NCGC00104041-01] | 3.35 µM | 34.3 µM | –
3 | -4.4143 M | CCN(CC)CCCNC(=O)c1ccc2c(c1)N(Cc1c(F)cccc1Cl)C(=O)c1ccccc1S2 [NCGC00108146-01] | 0.944 µM | 38.5 µM | –
4 | -4.3143 M | CCN(CC)CCOC(=O)c1ccc(NC(=O)c2cc3c(=O)n(CC)c4ccccc4c3s2)cc1 [NCGC00110417-01] | 2.66 µM | 48.5 µM | –
5 | -4.5643 M | COc1cc(C2CC(=O)N(Cc3ccc(F)cc3)c3ccccc3S2)cc(OC)c1OC (stereo not drawn) [NCGC00112401-01] | 2.11 µM | 27.3 µM | –
6 | -4.6143 M | CCCN1CCN(CCCNC(=O)c2ccc3c(c2)sc2nc(-c4ccc(OCC)cc4)cn23)CC1 [NCGC00113254-01] | 4.22 µM | 24.3 µM | –
7 | -4.4643 M | CCCCN(C)CCCNC(=O)Cn1ncc2c3ccccc3n(Cc3cc(C)ccc3C)c2c1=O [NCGC00114267-01] | 0.75 µM | 34.3 µM | –
8 | -4.3643 M | CCCCN1C(=O)c2[nH]nc(-c3ccccc3O)c2C1c1ccc(OCc2ccccc2)cc1 (stereo not drawn) [NCGC00115502-01] | 5.96 µM | 43.2 µM | –
9 | -4.4643 M | CCC1CCCCN1CCCNC(=O)c1ccc2c(c1)sc1nc(-c3ccc(F)cc3)cn12 (stereo not drawn) [NCGC00121679-01] | 1.5 µM | 34.3 µM | –
10 | -4.5143 M | CC1CCCCN1CCCNC(=O)c1ccc2c(c1)sc1nc(-c3ccc(F)cc3)cn12 (stereo not drawn) [NCGC00121681-01] | 1.88 µM | 30.6 µM | –
11 | -4.3643 M | Cc1cc(N2CCN(C)CC2)nc2ccc(NC(=O)Nc3cccc(Cl)c3)cc12 [NCGC00126479-01] | 4.22 µM | 43.2 µM | –
12 | -4.3643 M | CCOc1ccccc1NC(=O)Nc1ccc2nc(N3CCN(C)CC3)cc(C)c2c1 [NCGC00126491-01] | 1.33 µM | 43.2 µM | –
13 | -4.3643 M | CC(C)(C)OC(=O)N1CCC(c2c(C(=O)NCCN3CCC(Cc4ccccc4)CC3)cnn2-c2ccc(F)cc2)CC1 [NCGC00126694-01] | 5.31 µM | 43.2 µM | –
14 | -4.3643 M | Cc1ccc(C)c(N2CCN(CCCNC(=O)c3cnn(-c4ccc(F)cc4)c3C3CCN(C(=O)OC(C)(C)C)CC3)CC2)c1 [NCGC00126698-01] | 2.66 µM | 43.2 µM | –
15 | -4.3643 M | Cc1ccc(C)c(N2CCN(CCCNC(=O)c3cnn(-c4cccc(Cl)c4)c3C3CCN(C(=O)OC(C)(C)C)CC3)CC2)c1 [NCGC00126914-01] | 8.41 µM | 43.2 µM | –
16 | -4.5143 M | COc1ccc(C2=CC(c3ccc(F)cc3)n3ncc(C(=O)Nc4ccc(C)cc4)c3N2)cc1 (stereo not drawn) [NCGC00127228-01] | 2.37 µM | 30.6 µM | –
17 | -4.3643 M | CCOc1ccc(C2=C(C(C)=O)Sc3nnc(C)n3N2C(C)=O)cc1 [NCGC00137200-01] | 5.31 µM | 43.2 µM | –
18 | -4.3643 M | CC(=O)C1=C(c2ccc(Cl)c(Cl)c2)N(C(C)=O)n2cnnc2S1 [NCGC00137238-01] | 3.76 µM | 43.2 µM | –
19 | -4.3643 M | CCCCN(CC)CCCNC(=O)c1ccc2c(c1)N(Cc1ccc(C)cc1)C(=O)c1ccccc1S2 [NCGC00139764-01] | 1.88 µM | 43.2 µM | –
20 | -4.3643 M | COC(=O)C1=C(C)NC(C)=C(C(=O)OCCCN2CCC(c3ccccc3)(c3ccccc3)CC2)C1c1cccc([N+](=O)[O-])c1.Cl (stereo not drawn) [NCGC00163135-01] | – | 43.2 µM | 2.99 µM
21 | -4.5643 M | COc1cc2c(Nc3ccc(Br)cc3F)ncnc2cc1OCC1CCN(C)CC1 [NCGC00167513-01] | 5.96 µM | 27.3 µM | –
22 | -4.3643 M | COc1ccccc1-c1ccc(CN2CCCC(c3nc4ccc(F)cc4c(=O)[nH]3)C2)cc1 (stereo not drawn) [NCGC00377223-02] | 8.41 µM | 43.2 µM | –
23 | -4.3028 M | O[C@H]1[C@H](NCC2CCCCC2)[C@H]2CO[C@H](O2)[C@@H]1N1CCC(Cc2ccccc2)CC1 [NCGC00394729-01] | 1.37 µM | 49.8 µM | –
24 | -4.5643 M | O=C(Nc1ccc([C@H]2OCC(=O)N(Cc3ccncc3)[C@@H]2CO)cc1)c1ccc(C(F)(F)F)cc1 [NCGC00395114-01] | 16.8 µM | 27.3 µM | –
25 | -4.3528 M | CC(C)C[C@@H]1N[C@H](C(=O)NC(C)C)Cc2cn(Cc3ccncc3)c3cccc1c23 [NCGC00395386-01] | 17.2 µM | 44.4 µM | –
26 | -4.4143 M | CC(C)(C)c1ccc(-c2cc(C[C@H]3CNCC[C@H]3CC(=O)N3CCN(c4ccccn4)CC3)no2)cc1 [NCGC00400637-01] | 15 µM | 38.5 µM | –
27 | -4.2528 M | COc1cccc(Nc2ccc3c(n2)C(C)(C(=O)NC2CCN(C)CC2)CN(C)C3)c1 (stereo not drawn) [NCGC00414505-01] | 17.2 µM | 55.9 µM | –

Row | Compound | Log AC50 (M) (HepG2) | AC50 ([1]; read-out: AC50) | CC50 at 48 h (in vitro) | AC50 [1]
28 | CN1CCC(Nc2ncc3ncnc(Nc4ccc(F)c(Cl)c4)c3n2)CC1.Cl.Cl [NCGC00161422-01] | -4.7643 M | 10.6 µM | 17.2 µM | –
29 | COC(=O)C1=C(C)NC(C)=C(C(=O)OC(C)(C)CN(C)CCC(c2ccccc2)c2ccccc2)C1c1cccc([N+](=O)[O-])c1.Cl (stereo not drawn) [NCGC00167492-01] | -4.6143 M | 2.99 µM | 24.3 µM | –
30 | CC(C)(C)c1ccc(NC(=O)OC[C@H]2C[C@@H]3CCN2C[C@@H]3c2cc(C3CCCC3)nc(-c3ccncc3)n2)cc1 [NCGC00391636-01] | -4.3643 M | 2.11 µM | 43.2 µM | –
31 | Cc1nc(-c2ccccc2)cc([C@H]2CN3CC[C@H]2C[C@@H]3CN(Cc2ccco2)Cc2ccco2)n1 [NCGC00392555-01] | -4.5143 M | 2.99 µM | 30.6 µM | –
32 | CCC(CC)c1cc([C@H]2CN3CC[C@H]2C[C@@H]3COC(=O)Nc2ccc(C(C)(C)C)cc2)nc(-c2ccncc2)n1 [NCGC00394559-01] | -4.3643 M | 2.11 µM | 43.2 µM | –
33 | COc1cc2c(cc1OCc1ccccc1)N(C(=O)c1cc3ccccc3n1C)CC21CCN(C)CC1 [NCGC00419848-01] | -4.3643 M | 2.11 µM | 43.2 µM | –
34 | Cc1ccc([S+](=O)([O-])NC[C@H]2C[C@@H]3CC[N@]2C[C@@H]3CN2CCc3ccccc32)cc1 [NCGC00421178-01] | -4.2528 M | – | 55.9 µM | 13.7 µM
35 | COc1ccc(NC(=O)OC[C@H]2C[C@@H]3CCN2C[C@@H]3c2cc(C3CCCC3)nc(-c3ccncc3)n2)cc1 [NCGC00421346-01] | -4.3643 M | 4.22 µM | 43.2 µM | –
